Laboratory results published in patent publication US9926282B2, “Phthalazinones and isoquinolinones as rock inhibitors” (BRISTOL-MYERS SQUIBB COMPANY, priority 2013, dated 2018).

Tests used:
[1] = molecular target: ROCK2 (Homo sapiens (Human), UniProt O75116); assay: ROCK assay (LABCHIP peptide phosphorylation), ROCK2; format: biochemical; conditions: 5 μM ATP, 1.5 μM peptide substrate
[2] = molecular target: ROCK1 (Homo sapiens (Human), UniProt Q13464); assay: ROCK assay (LABCHIP peptide phosphorylation), ROCK1; format: biochemical; conditions: 5 μM ATP, 1.5 μM peptide substrate; read-out: ROCK1 IC50
ROCK1, sequence (Q13464 whole entry, species assumed): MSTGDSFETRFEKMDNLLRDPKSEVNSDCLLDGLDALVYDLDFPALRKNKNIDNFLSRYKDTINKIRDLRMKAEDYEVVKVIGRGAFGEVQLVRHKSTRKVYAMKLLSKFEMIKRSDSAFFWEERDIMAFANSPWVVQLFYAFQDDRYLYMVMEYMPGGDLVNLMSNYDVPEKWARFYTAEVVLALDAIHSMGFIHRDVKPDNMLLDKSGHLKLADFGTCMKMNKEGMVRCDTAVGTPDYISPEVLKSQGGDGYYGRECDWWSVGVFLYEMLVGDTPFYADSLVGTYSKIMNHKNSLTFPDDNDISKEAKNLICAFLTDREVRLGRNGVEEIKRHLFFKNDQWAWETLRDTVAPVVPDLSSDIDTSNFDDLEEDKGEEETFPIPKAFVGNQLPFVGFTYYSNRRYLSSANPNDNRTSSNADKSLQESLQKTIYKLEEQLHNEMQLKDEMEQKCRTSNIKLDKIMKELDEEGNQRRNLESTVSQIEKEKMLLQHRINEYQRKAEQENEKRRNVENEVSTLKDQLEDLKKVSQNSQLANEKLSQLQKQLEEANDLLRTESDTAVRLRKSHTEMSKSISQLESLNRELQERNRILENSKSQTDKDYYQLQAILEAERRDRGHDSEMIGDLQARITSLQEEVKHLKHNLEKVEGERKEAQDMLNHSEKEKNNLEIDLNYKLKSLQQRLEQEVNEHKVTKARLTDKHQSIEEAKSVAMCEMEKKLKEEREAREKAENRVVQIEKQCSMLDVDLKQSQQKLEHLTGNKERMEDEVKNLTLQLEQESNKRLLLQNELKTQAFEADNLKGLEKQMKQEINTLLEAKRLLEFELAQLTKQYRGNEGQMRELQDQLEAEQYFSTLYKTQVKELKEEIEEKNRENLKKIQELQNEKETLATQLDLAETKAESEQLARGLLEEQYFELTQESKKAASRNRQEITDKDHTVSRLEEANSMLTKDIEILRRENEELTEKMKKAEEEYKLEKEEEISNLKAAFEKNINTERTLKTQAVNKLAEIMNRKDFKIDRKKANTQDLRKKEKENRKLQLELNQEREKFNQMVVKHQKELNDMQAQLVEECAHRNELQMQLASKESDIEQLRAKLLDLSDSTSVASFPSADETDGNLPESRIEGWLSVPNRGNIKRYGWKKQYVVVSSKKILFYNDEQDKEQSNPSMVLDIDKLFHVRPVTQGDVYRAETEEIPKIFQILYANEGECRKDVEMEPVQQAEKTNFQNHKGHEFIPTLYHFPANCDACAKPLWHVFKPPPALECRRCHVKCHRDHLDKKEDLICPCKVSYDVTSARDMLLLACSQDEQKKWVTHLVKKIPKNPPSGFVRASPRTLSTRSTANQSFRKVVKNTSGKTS

ROCK2, sequence (O75116 whole entry, species assumed): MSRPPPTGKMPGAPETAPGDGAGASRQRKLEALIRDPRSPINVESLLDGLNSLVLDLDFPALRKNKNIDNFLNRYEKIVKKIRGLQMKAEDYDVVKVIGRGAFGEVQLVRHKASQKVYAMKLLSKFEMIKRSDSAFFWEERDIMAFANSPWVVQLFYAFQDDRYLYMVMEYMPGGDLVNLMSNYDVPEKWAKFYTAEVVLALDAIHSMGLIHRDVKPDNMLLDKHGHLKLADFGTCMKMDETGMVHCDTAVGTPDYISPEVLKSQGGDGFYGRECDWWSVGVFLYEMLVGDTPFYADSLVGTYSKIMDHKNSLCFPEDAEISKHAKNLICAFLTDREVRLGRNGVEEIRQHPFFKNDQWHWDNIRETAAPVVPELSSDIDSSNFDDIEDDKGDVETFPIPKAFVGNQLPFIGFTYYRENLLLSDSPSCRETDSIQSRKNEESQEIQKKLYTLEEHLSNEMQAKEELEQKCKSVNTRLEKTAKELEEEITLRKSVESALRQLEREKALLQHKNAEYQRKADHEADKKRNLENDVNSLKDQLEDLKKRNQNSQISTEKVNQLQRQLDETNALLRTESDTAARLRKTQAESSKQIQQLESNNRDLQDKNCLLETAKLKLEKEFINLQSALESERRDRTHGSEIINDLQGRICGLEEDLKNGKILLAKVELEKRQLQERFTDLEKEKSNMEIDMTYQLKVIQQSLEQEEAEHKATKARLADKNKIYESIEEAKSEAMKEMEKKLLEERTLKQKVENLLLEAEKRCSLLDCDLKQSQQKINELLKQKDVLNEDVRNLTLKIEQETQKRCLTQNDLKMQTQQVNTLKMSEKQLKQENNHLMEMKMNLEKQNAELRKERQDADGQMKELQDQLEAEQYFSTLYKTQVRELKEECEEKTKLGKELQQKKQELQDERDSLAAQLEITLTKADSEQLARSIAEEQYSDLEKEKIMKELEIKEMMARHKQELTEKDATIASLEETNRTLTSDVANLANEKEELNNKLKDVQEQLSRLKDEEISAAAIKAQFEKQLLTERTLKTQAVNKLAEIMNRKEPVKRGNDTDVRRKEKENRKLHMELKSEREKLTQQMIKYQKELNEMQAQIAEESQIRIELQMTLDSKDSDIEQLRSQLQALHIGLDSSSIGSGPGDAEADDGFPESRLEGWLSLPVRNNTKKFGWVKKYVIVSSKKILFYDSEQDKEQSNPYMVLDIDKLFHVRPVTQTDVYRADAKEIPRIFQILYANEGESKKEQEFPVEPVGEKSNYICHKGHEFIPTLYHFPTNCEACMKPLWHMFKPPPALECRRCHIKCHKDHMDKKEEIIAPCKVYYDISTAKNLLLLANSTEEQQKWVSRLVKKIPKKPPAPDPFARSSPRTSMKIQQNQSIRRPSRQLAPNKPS

| SMILES | IC50 [1] [nM] | IC50 [2] [nM] |
| --- | --- | --- |
| Cc1noc(-c2ccc(CO)cc2)c1C(=O)Nc1ccc(-c2n[nH]c(=O)c3ccccc23)cc1 [Example 224, 5-[4-(hydroxymethyl)phenyl]-3-methyl-N-[4-(4-oxo-3,4-dihydrophthalazin-1-yl)phenyl]-1,2-oxazole-4-carboxamide] | 0.1 to 100 | 0.1 to 100 |
| O=C(c1ccc2c(c1)N(C(=O)Cc1ccc(-c3n[nH]c(=O)c4ccccc34)cc1)CC2)N1CCOCC1 [Example 293, 4-(4-{2-[6-(morpholine-4-carbonyl)-2,3-dihydro-1H-indol-1-yl]-2-oxoethyl}phenyl)-1,2-dihydrophthalazin-1-one] | 0.1 to 100 | 101 to 1000 |
| O=C(c1ccc2c(c1)N(C(=O)Cc1ccc(-c3n[nH]c(=O)c4ccccc34)cc1)CC2)N1CCC(O)CC1 [Example 295, 4-(4-{2-[6-(4-hydroxypiperidine-1-carbonyl)-2,3-dihydro-1H-indol-1-yl]-2-oxoethyl}phenyl)-1,2-dihydrophthalazin-1-one] | 0.1 to 100 | 101 to 1000 |
| COc1ccc(-n2nnc(C(=O)Nc3ccc(-c4n[nH]c(=O)c5ccccc45)cc3)c2C)cc1 [Example 401, 1-(4-Methoxyphenyl)-5-methyl-N-(4-(4-oxo-3,4-dihydrophthalazin-1-yl)phenyl)-1H-1,2,3-triazole-4-carboxamide] | 0.1 to 100 | 0.1 to 100 |
| O=C(Nc1ccc(-c2n[nH]c(=O)c3ccccc23)cc1)c1n[nH]c2ccc(Cl)cc12 [Example 114, 5-chloro-N-[4-(4-oxo-3,4-dihydrophthalazin-1-yl)phenyl]-1H-indazole-3-carboxamide] | 0.1 to 100 | 101 to 1000 |
| COc1cc(NC(=O)c2nn(CC(C)(C)O)c3ccccc23)ccc1-c1n[nH]c(=O)c2ccccc12 [Example 345, 1-(2-Hydroxy-2-methylpropyl)-N-(3-methoxy-4-(4-oxo-3,4-dihydrophthalazin-1-yl)phenyl)-1H-indazole-3-carboxamide] | 0.1 to 100 | 101 to 1000 |
| COCCn1nc(C(=O)Nc2ccc(-c3n[nH]c(=O)c4ccccc34)cc2)c2ccccc21 [Example 151, 1-(2-methoxyethyl)-N-[4-(4-oxo-3,4-dihydrophthalazin-1-yl)phenyl]-1H-indazole-3-carboxamide] | 0.1 to 100 | 0.1 to 100 |
| Cc1c(C(=O)Nc2ccc(-c3n[nH]c(=O)c4ccccc34)cc2)nnn1-c1ccccc1 [Example 400, 5-Methyl-N-(4-(4-oxo-3,4-dihydrophthalazin-1-yl)phenyl)-1-phenyl-1H-1,2,3-triazole-4-carboxamide] | 0.1 to 100 | 0.1 to 100 |
| O=C(Nc1ccc(-c2n[nH]c(=O)c3ccccc23)cc1)c1ncn(-c2ccccn2)n1 [Example 240, N-[4-(4-oxo-3,4-dihydrophthalazin-1-yl)phenyl]-1-(pyridin-2-yl)-1H-1,2,4-triazole-3-carboxamide] | 0.1 to 100 | 101 to 1000 |
| O=C(Cc1ccc(-c2n[nH]c(=O)c3ccccc23)cc1)N1CCN(Cc2ccccc2)CC1 [Example 12, 4-{4-[2-(4-benzylpiperazin-1-yl)-2-oxoethyl]phenyl}-1,2-dihydrophthalazin-1-one] | 1000 to 50000 | 1000 to 50000 |
| CC(C)OC(=O)N1CCC(Cn2nc(C(=O)Nc3ccc(-c4n[nH]c(=O)c5ccccc45)cc3)c3ccccc32)CC1 [Example 349, Propan-2-yl 4-[(3-{[4-(4-oxo-3,4-dihydrophthalazin-1-yl)phenyl]carbamoyl}-1H-indazol-1-yl)methyl]piperidine-1-carboxylate] | 0.1 to 100 | 0.1 to 100 |
| Cc1cc(NC(=O)c2cnn3ccccc23)ccc1-c1n[nH]c(=O)c2ccccc12 [Example 310, N-[3-methyl-4-(4-oxo-3,4-dihydrophthalazin-1-yl)phenyl]pyrazolo [1,5-a]pyridine-3-carboxamide] | 0.1 to 100 | 101 to 1000 |
| COCC(O)COc1ccn2ncc(C(=O)Nc3ccc(-c4n[nH]c(=O)c5ccccc45)cc3)c2c1 (stereo not shown) [Example 194, 5-(2-hydroxy-3-methoxypropoxy)-N-[4-(4-oxo-3,4-dihydrophthalazin-1-yl)phenyl]pyrazolo[1,5-a]pyridine-3-carboxamide] | 0.1 to 100 | 101 to 1000 |
| CC(C)Oc1ccc2c(c1)CCN2C(=O)Cc1ccc(-c2n[nH]c(=O)c3ccccc23)cc1 [Example 273, 4-(4-{2-oxo-2-[5-(propan-2-yloxy)-2,3-dihydro-1H-indol-1-yl]ethyl}phenyl)-1,2-dihydrophthalazin-1-one] | 0.1 to 100 | 101 to 1000 |
| O=C(Cc1ccc(-c2n[nH]c(=O)c3ccccc23)cc1)Nc1ccccc1 [Example 20, 2-[4-(4-oxo-3,4-dihydrophthalazin-1-yl)phenyl]-N-phenylacetamide] | 101 to 1000 | 1000 to 50000 |
| O=C(Nc1ccc(-c2n[nH]c(=O)c3ccccc23)cc1)c1nn(CC2CNC2)c2ccccc12 [Example 338, 1-(Azetidin-3-ylmethyl)-N-(4-(4-oxo-3,4-dihydrophthalazin-1-yl)phenyl)-1H-indazole-3-carboxamide] | 101 to 1000 | 0.1 to 100 |

| SMILES | IC50 [1] [nM] | IC50 [2] [nM] |
| --- | --- | --- |
| O=C(Cc1ccc(-c2n[nH]c(=O)c3ccccc23)cc1)N1CCc2ccc(O[C@@H]3CCOC3)cc21 [Example 274, 4-[4-(2-oxo-2-{6-[(3R)-oxolan-3-yloxy]-2,3-dihydro-1H-indol-1-yl}ethyl)phenyl]-1,2-dihydrophthalazin-1-one] | 0.1 to 100 | 0.1 to 100 |
| O=C(Cn1nc(C(=O)Nc2ccc(-c3n[nH]c(=O)c4ccccc34)cc2)c2ccccc21)NCC1(O)CCC1 [Example 335, 1-(2-(((1-Hydroxycyclobutyl)methyl)amino)-2-oxoethyl)-N-(4-(4-oxo-3,4-dihydrophthalazin-1-yl)phenyl)-1H-indazole-3-carboxamide] | 0.1 to 100 | 0.1 to 100 |
| O=C(c1ccc2c(c1)CCN2C(=O)Cc1ccc(-c2n[nH]c(=O)c3ccccc23)cc1)N1CCOCC1 [Example 296, 4-(4-{2-[5-(morpholine-4-carbonyl)-2,3-dihydro-1H-indol-1-yl]-2-oxoethyl}phenyl)-1,2-dihydrophthalazin-1-one] | 0.1 to 100 | 101 to 1000 |
| CN1CC[C@H](Oc2ccc3c(c2)N(C(=O)Cc2ccc(-c4n[nH]c(=O)c5ccccc45)cc2)CC3)C1 [Example 281, 4-{4-[2-(6-{[(3S)-1-methylpyrrolidin-3-yl]oxy}-2,3-dihydro-1H-indol-1-yl)-2-oxoethyl]phenyl}-1,2-dihydrophthalazin-1-one] | 0.1 to 100 | 101 to 1000 |
| COc1ccc2c(-c3ccc(NC(=O)c4nn(CC(C)(C)O)c5ccccc45)cc3)n[nH]c(=O)c2c1 [Example 369, 1-(2-Hydroxy-2-methylpropyl)-N-(4-(6-methoxy-4-oxo-3,4-dihydrophthalazin-1-yl)phenyl)-1H-indazole-3-carboxamide] | 0.1 to 100 | 101 to 1000 |
| O=C(Nc1ccc(-c2n[nH]c(=O)c3ccccc23)cc1)c1nn(CC2COC2)c2cc(F)ccc12 [Example 159, 6-fluoro-1-(oxetan-3-ylmethyl)-N-[4-(4-oxo-3,4-dihydrophthalazin-1-yl)phenyl]-1H-indazole-3-carboxamide] | 0.1 to 100 | 0.1 to 100 |
| COc1ccccc1-n1cc(C(=O)Nc2ccc(-c3n[nH]c(=O)c4ccccc34)cc2)nn1 [Example 406, 1-(2-Methoxyphenyl)-N-(4-(4-oxo-3,4-dihydrophthalazin-1-yl)phenyl)-1H-1,2,3-triazole-4-carboxamide] | 0.1 to 100 | 0.1 to 100 |
| CC1Cc2ccccc2N1C(=O)Cc1ccc(-c2n[nH]c(=O)c3ccccc23)cc1 (stereo not shown) [Example 40, 4-{4-[2-(2-methyl-2,3-dihydro-1H-indol-1-yl)-2-oxoethyl]phenyl}-1,2-dihydrophthalazin-1-one] | 0.1 to 100 | 101 to 1000 |
| O=C(Nc1ccc(-c2n[nH]c(=O)c3ccccc23)cc1O)c1nn(CC2CCOC2)c2ccccc12 (stereo not shown) [Example 354, N-(2-Hydroxy-4-(4-oxo-3,4-dihydrophthalazin-1-yl)phenyl)-1-((tetrahydrofuran-3-yl)methyl)-1H-indazole-3-carboxamide] | 0.1 to 100 | 0.1 to 100 |
| O=C(Nc1ccc(-c2n[nH]c(=O)c3ccccc23)cc1)c1cnn(-c2ccccc2Cl)c1 [Example 220, 1-(2-chlorophenyl)-N-[4-(4-oxo-3,4-dihydrophthalazin-1-yl)phenyl]-1H-pyrazole-4-carboxamide] | 0.1 to 100 | 0.1 to 100 |
| Cn1ccc(C(=O)Nc2ccc(-c3n[nH]c(=O)c4ccccc34)cc2)n1 [Example 227, 1-methyl-N-[4-(4-oxo-3,4-dihydrophthalazin-1-yl)phenyl]-1H-pyrazole-3-carboxamide] | 0.1 to 100 | 101 to 1000 |
| O=C(Cc1ccc(-c2n[nH]c(=O)c3ccccc23)cc1)NCC1CC1 [Example 14, N-(cyclopropylmethyl)-2-[4-(4-oxo-3,4-dihydrophthalazin-1-yl)phenyl]acetamide] | 1000 to 50000 | 1000 to 50000 |
| O=C(Nc1ccc(-c2c[nH]c(=O)c3ccccc23)cc1)N1CCc2ccccc21 [Example 77, N-(4-(1-Oxo-1,2-dihydroisoquinolin-4-yl)phenyl)indoline-1-carboxamide] | 0.1 to 100 | 0.1 to 100 |
| CC(C)(O)CNC(=O)CCn1nc(C(=O)Nc2ccc(-c3n[nH]c(=O)c4ccccc34)cc2)c2ccccc21 [Example 336, 1-(3-((2-Hydroxy-2-methylpropyl)amino)-3-oxopropyl)-N-(4-(4-oxo-3,4-dihydrophthalazin-1-yl)phenyl)-1H-indazole-3-carboxamide] | 0.1 to 100 | 0.1 to 100 |
| Cc1cc(NC(=O)c2nn(CC3CCOCC3)c3ccccc23)ccc1-c1n[nH]c(=O)c2ccccc12 [Example 313, N-[3-methyl-4-(4-oxo-3,4-dihydrophthalazin-1-yl)phenyl]-1-(oxan-4-ylmethyl)-1H-indazole-3-carboxamide] | 0.1 to 100 | 0.1 to 100 |
| O=C(Cc1ccc(-c2c[nH]c(=O)c3ccccc23)c(F)c1)N1CCc2ccccc21 [Example 287, 4-(2-Fluoro-4-(2-(indolin-1-yl)-2-oxoethyl)phenyl)isoquinolin-1 (2H)-one] | 0.1 to 100 | 0.1 to 100 |
